# Laboratory results from publication PMC9127493 (Signal Transduction and Targeted Therapy, 2022).
# Where two headings read alike, the source gives them in different places.
# How the values were obtained:
# [1] = Cytotoxicity of drugs used in pseudovirus experiments (MTS); assay type: cell-based; settings: human; 293T-hACE2 cells, MTS assay at 48 hours, n = 3
# Protocol: (§1) Cells were seeded into 96-well plates and exposed to serially diluted drugs for 48 h. Cell viability was determined using MTS (Promega, Madison, WI, USA), according to the manufacturer’ s instructions. The absorbance was measured in Varioskan Flash (Thermo) at 490 nm. Data were normalized to the control group (DMSO). CC50 values were calculated by concentration-response curve-fitting using GraphPad Prism.
# 293T-hACE2 cells were treated with serially diluted drugs and cytotoxicity was determined by MTS assay at 48 hours (n = 3).
# [2] = test system: SARS-CoV-2 wild-type isolate XM088T; test: Antiviral efficacy assay, qRT-PCR of virus released in supernatants; assay type: cell-based; settings: MOI of 0.05, pretreated 2 h, qRT-PCR at 48 h p.i., n = 3
# Vero E6 cells = test: Morphological observations, cytoplasmic vacuolization; assay type: cell-based, African green monkey; settings: for induction of cytoplasmic vacuoles: Vero E6 cells, 5 μM, 8 h
# Protocol: Morphological observations
# Cells were seeded into 96-well plates and treated with test drugs for indicated time periods. Pictures of cells were subsequently obtained using Biotek Cytation-5&BioSpa8.
# 293T-ACE2iRb3 cells = test: Visualization of SARS-CoV-2 cell entry with STG probe; assay type: cell-based, human; settings: pretreated with 2 μM for 1 h, 3 h post STG incubation
# Protocol: Visulization of SARS-CoV-2 cell entry
# To visualize the effect of drugs on viral entry, 293T-ACE2iRb3 cells were pretreated with serially diluted drugs for 1 h before STG probes addition for further incubation. Cell images shown in Fig 1e were acquired using a 100× oil immersion objective. The data shown in Fig S3 was derived from images acquired on Opera Phenix using 40× water immersion objective. For images of Fig 1e, cells were gently washed twice with PBS after 3 h incubation with STG, following a paraformaldehyde fixation before imaging. Cell images involved in Fig S3 were obtained under wash-free and live-cell conditions. The construction of STG probe used here and the image quantitative analysis were performed as previously described^1.
# All drugs were tested in a 3-fold dilution series and the initial drug concentration was 15 μM. Three and five replicate wells were performed for the DMSO and drug groups, respectively. 25 fields of each well were imaged for quantitative analyses after 3 h incubation with STG-probe.
# [3] = Antiproliferation (MTS) assay, cytotoxicity; assay type: cell-based; settings: African green monkey, Vero E6 cells
# Protocol: as §1, with “Cell” for “Cells were seeded into 96-well plates and exposed to serially diluted drugs for 48 h. Cell”
# [4] = parameters: method as in PMID 31628917; settings: patients with Crohn’s disease and rheumatoid arthritis; cited from earlier work
# SARS-CoV-2 [5] = test: Cytopathic effect (CPE) inhibition assay in Vero E6 cells; assay type: cell-based; settings: wild-type SARS-CoV-2, MOI = 0.1, 48 h
# SARS-CoV-2 [6] = test: Time-of-addition experiment; assay type: cell-based; settings: Vero E6 cells, qRT-PCR at 24 h p.i. and nucleoprotein Western blot
# Protocol: Time-of-addition experiment
# Vero E6 cells were plated into 6-well plates and grew overnight. During “Full-time” treatment, cells were first treated with drug for two hours, and then infected with the virus for two hours. After that, the mixed supernatant was removed and cells were washed twice with PBS and finally cultured in fresh medium containing the same concentration of drug. For “Entry” treatment, pre-treatment and infection operations were similar to that in “Full-time” treatment. However, cells were cultured in drug-free medium after the mixed supernatant removed. As for “Post-entry” treatment, cells were infected with virus for 2 h before treated with drug for 2 h. Then the mixture was removed and fresh medium containing drug was added after cells were washed with PBS. The DMSO-control group was treated in the same way as “Full-time” group. For quantitative PCR, the MOI was controlled at 0.05 and supernatant was harvest at 24 h post infection. While for western blot, MOI was controlled at 0.30 and cells were harvest at 72 h post infection to identify the virus protein expression.
# cathepsin B = test: Cathepsin B activation, Western blot; assay type: cell-based, human; settings: A549 cells, time- and dose-dependent
# PIKfyve = target: T1, PIKfyve (Homo sapiens, UniProt Q9Y2I7); test: KINOMEscan competitive binding assay, Kds determination
# T1 construct: purchased Eurofins DiscoverX Corporation (KINOMEscan service); host or cells: HEK-293
# Description: KINOMEscan technology is a competitive affinity-based binding assay provided by Eurofins DiscoverX Corporation^3. Briefly, kinases were produced in HEK-293 cells and tagged with DNA for qPCR detection. Affinity resins were generated by treating streptavidin-coated magnetic beads with biotinylated small molecule ligands. For binding assays, the liganded beads were combined with DNA-tagged kinases and the test compounds. DMSO was used as a control. Compounds that bind to the DNA-tagged kinases will prevent these kinases binding with immobilized ligands and reduce the amount of the corresponding kinases captured on solid support. Kds were determined using 11 serial threefold dilutions of the test compounds and a DMSO control.
# Supplementary Figure S1. The equilibrium dissociation constant (Kd) for XMU-MP-7 with PIKfyve was determined from 2 independent titration curves.
# [7] = Pharmacokinetics after single intravenous and oral administration; assay type: in vivo; settings: Sprague Dawley, plasma, rat; for MRT inf: read-out: MRT(0-∞)
# Protocol: The pharmacokinetics of XMU-MP-7 were determined following single intravenous and oral administration in Sprague Dawley rat (N = 3/each) at the dose indicated. Blood samples were collected at 0.08, 0.25, 0.5, 1, 2, 4, 8 & 24 hr (IV) & 0.25, 0.5, 1, 2, 4, 6, 8 & 24 hr (PO) post dose. Then the samples were quantified by LC-MS/MS, and data analysis was conducted using WinNonlin V6.3. IV = intravenous injection, PO = oral delivery, Tmax = time of maximum plasma concentration, Cmax = maximum plasma concentration, AUC = area under the curve (measure of exposure), T1/2 = half life, Cl = plasma clearance, Vd = volume of distribution, F = oral bioavailability.
# [8] = Severe acute respiratory syndrome coronavirus 2, Vero C1008, Vero E6 cells
# T1 sequence (Q9Y2I7 whole entry): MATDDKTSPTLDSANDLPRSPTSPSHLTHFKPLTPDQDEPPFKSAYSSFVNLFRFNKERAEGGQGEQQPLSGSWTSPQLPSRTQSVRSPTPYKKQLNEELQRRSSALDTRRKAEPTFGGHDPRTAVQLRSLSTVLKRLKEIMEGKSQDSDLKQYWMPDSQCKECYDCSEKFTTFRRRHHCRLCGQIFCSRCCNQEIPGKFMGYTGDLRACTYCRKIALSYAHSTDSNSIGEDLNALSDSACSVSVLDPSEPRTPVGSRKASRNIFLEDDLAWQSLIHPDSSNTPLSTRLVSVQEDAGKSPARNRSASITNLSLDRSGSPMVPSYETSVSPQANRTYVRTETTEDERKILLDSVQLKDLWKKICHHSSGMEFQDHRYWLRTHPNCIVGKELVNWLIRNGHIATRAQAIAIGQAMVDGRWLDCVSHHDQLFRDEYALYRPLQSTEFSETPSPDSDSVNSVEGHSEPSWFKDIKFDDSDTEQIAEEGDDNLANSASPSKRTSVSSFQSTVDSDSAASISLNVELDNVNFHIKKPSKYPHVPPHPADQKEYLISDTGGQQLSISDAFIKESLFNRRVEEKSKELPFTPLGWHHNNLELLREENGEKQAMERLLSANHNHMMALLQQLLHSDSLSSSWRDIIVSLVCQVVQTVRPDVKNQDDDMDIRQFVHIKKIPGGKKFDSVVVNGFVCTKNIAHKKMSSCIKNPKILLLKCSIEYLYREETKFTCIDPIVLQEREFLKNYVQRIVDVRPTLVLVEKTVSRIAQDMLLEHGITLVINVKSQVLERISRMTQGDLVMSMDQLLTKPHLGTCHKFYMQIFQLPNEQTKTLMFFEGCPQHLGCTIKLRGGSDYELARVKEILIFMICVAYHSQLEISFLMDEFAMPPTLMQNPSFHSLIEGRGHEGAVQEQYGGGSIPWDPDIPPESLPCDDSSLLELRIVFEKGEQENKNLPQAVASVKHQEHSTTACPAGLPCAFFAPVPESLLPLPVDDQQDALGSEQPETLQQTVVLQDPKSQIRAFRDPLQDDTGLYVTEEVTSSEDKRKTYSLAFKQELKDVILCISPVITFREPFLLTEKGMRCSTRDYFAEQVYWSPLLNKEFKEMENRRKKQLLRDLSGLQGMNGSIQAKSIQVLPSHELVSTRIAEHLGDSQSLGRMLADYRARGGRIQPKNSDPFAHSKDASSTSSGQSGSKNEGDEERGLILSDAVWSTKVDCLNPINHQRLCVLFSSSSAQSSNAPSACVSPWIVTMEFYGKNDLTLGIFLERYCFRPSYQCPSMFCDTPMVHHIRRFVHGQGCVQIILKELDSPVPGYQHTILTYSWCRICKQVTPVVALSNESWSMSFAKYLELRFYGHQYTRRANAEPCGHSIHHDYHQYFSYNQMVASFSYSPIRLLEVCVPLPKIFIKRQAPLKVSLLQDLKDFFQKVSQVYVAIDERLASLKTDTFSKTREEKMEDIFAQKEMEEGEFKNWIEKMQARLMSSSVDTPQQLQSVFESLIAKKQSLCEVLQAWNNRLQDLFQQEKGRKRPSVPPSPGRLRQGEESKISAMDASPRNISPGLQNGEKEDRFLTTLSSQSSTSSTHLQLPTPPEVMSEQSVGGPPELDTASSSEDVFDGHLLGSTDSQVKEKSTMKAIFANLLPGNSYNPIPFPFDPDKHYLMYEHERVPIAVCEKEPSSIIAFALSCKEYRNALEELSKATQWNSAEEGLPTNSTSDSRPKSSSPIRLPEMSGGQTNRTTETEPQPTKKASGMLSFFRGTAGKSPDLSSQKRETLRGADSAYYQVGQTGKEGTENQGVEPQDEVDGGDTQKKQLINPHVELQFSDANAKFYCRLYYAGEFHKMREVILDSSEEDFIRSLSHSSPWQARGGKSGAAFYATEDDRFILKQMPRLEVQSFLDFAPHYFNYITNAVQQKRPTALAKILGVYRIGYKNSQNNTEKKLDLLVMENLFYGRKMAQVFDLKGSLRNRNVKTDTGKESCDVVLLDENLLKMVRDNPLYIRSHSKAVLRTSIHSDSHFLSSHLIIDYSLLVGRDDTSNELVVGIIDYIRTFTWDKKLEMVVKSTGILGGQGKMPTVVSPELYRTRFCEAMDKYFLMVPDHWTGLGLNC
SMILES,CC50 at 48 h [1],"EC50 [2, 8]",time to visible cytoplasmic vacuoles (Vero E6 cells),induction of cytoplasmic vacuoles (Vero E6 cells),STG probe internalization (confocal images) (293T-ACE2iRb3 cells),"CC50 at 48 h ([3]; 48 h, n = 3)",rescue of cytopathic effect (SARS-CoV-2 [5]),stage of infection at which the drug acts (SARS-CoV-2 [6]),Kd (PIKfyve),also measured
Cc1cccc(/C=N/Nc2cc(N3CCOCC3)nc(OCCc3ccccn3)n2)c1 [Apilimod],> 10 µM,< 0.0069 µM,less than 20 min,induced cytoplasmic vacuoles,almost completely trapped on the enlarged cytoplasmic vacuoles,41.8 µM,significantly rescued the cytopathic effects,–,–,bioavailability [4]: poor bioavailability; plasma concentration [4]: unexpected low plasma concentration
CCN(CC)CCCC(C)Nc1ccnc2cc(Cl)ccc12 (stereo not drawn) [Chloroquine],–,0.549 µM,–,–,–,54.8 µM,–,–,–,EC50 ([2]; Vero E6 cells): ~0.5 µM
CC(C)(C)[C@H](NC(=O)C(F)(F)F)C(=O)N1C[C@H]2[C@@H]([C@H]1C(=O)N[C@H](C#N)C[C@@H]1CCNC1=O)C2(C)C [PF-07321332],–,–,–,–,–,–,–,–,–,"EC50 ([2]; Vero E6 cells, read-out: EC50): 0.487 µM"
CCC(CC)COC(=O)[C@H](C)N[P@](=O)(OC[C@H]1O[C@@](C#N)(c2ccc3c(N)ncnn23)[C@H](O)[C@@H]1O)Oc1ccccc1 [Remdesivir],–,1.64 µM,–,–,STG entered the cytoplasm,> 150 µM,–,only exerted an inhibitory effect at post-entry stage,–,–
COc1ccc(C(=O)Nc2cccc(C(F)(F)F)c2)cc1Nc1nc(-c2cccnc2)c2[nH]ccc2n1 [XMU-MP-7],> 10 µM,0.0093 µM,less than 20 min,dramatically induced cytoplasmic vacuoles,almost completely trapped on the enlarged cytoplasmic vacuoles,–,significantly rescued the cytopathic effects,potent antiviral roles at both entry and post-entry stages,0.0064 µM,"maturation of active cathepsin B (cathepsin B): impaired the maturation of active cathepsin B; CC50 at 48 h [3]: > 150 µM; AUC(0-inf) ([7]; IV, 2 mg/kg): 4250 ng·h/mL; AUC(0-t) ([7]; IV, 2 mg/kg): 4250 ng·h/mL; C0 ([7]; IV, 2 mg/kg): 14000 ng/mL; Tmax ([7]; IV, 2 mg/kg): 0.08 h; Vd ([7]; IV, 2 mg/kg): 0.2 L/kg; clearance ([7]; IV, 2 mg/kg): 7.88 mL/min/kg; half-life ([7]; IV, 2 mg/kg): 0.608 h; MRT inf ([7]; IV, 2 mg/kg): 0.429 h; AUC(0-inf) ([7]; PO, 10 mg/kg): 2210 ng·h/mL; AUC(0-t) ([7]; PO, 10 mg/kg): 2200 ng·h/mL; Cmax ([7]; PO, 10 mg/kg): 429 ng/mL; Tmax ([7]; PO, 10 mg/kg): 2.33 h; half-life ([7]; PO, 10 mg/kg): 3.06 h; bioavailability ([7]; PO, 10 mg/kg, read-out: F (oral bioavailability)): 10.4%; MRT inf ([7]; PO, 10 mg/kg): 3.81 h"
Cc1ccc(NC(=O)c2cccc(C(F)(F)F)c2)cc1Nc1nc(-c2ccncc2)c2[nH]ccc2n1 [cmpd 24],> 10 µM,12.3 µM,–,could not induce visible vacuoles,STG entered the cytoplasm,51.7 µM,–,–,> 30 µM,–
